According to the supplement of paper PMC13380429:

What was measured:
Details in all cases: 72 h
[1] = tested on: U2OS; assay: cell viability relative to DMSO; higher = less toxic
[2] = tested on: Vero E6; assay: as above
[3] = tested on: Calu-3; assay: as above
[4] = tested on: Caco-2; assay: as above
[5] = tested on: HepG2; assay: as above
[6] = tested on: U2OS; assay: drug sensitivity score (DSS) for viability; higher = more toxic; extreme values may be limits of the assay
[7] = tested on: Vero E6; assay: as above
[8] = tested on: Calu-3; assay: as above
[9] = tested on: Caco-2; assay: as above
[10] = tested on: HepG2; assay: as above
[11] = tested on: U2OS; assay: relative viability EC50 (midpoint between 100% and the lowest measured viability); higher = less toxic
[12] = tested on: Vero E6; assay: as above
[13] = tested on: Calu-3; assay: as above
[14] = tested on: Caco-2; assay: as above
[15] = tested on: HepG2; assay: as above

Row | SMILES | cell viability ([1]; 1 nM) | cell viability ([1]; 10 nM) | cell viability ([1]; 100 nM) | cell viability ([1]; 1000 nM) | cell viability ([1]; 10000 nM) | cell viability ([2]; 1 nM) | cell viability ([2]; 10 nM) | cell viability ([2]; 100 nM) | cell viability ([2]; 1000 nM) | cell viability ([2]; 10000 nM) | cell viability ([3]; 1 nM) | cell viability ([3]; 10 nM) | cell viability ([3]; 100 nM) | cell viability ([3]; 1000 nM) | cell viability ([3]; 10000 nM) | cell viability ([4]; 1 nM) | cell viability ([4]; 10 nM) | cell viability ([4]; 100 nM) | cell viability ([4]; 1000 nM) | cell viability ([4]; 10000 nM) | cell viability ([5]; 1 nM) | cell viability ([5]; 10 nM) | cell viability ([5]; 100 nM) | cell viability ([5]; 1000 nM) | cell viability ([5]; 10000 nM) | drug sensitivity score [6] | drug sensitivity score [7] | drug sensitivity score [8] | drug sensitivity score [9] | drug sensitivity score [10] | relative viability EC50 [11] | relative viability EC50 [12] | relative viability EC50 [13] | relative viability EC50 [14] | relative viability EC50 [15]
1 | CCOC(=O)[C@H](CCc1ccccc1)N[C@@H](C)C(=O)N1Cc2ccccc2C[C@H]1C(=O)O [quinapril] | 98.1% | 100% | 95.1% | 101% | 93.9% | 104% | 97.9% | 102% | 90.4% | 97.8% | 95.2% | 102% | 103% | 97% | 96.5% | 95.7% | 99.6% | 92.1% | 96.3% | 88.5% | 106% | 98.9% | 110% | 93.6% | 94.7% | 0 | 0 | 0 | 0 | 0 | > 10 µM | > 10 µM | > 10 µM | > 10 µM | > 10 µM
2 | CCCN1CCC[C@@H]2Cc3n[nH]cc3C[C@H]21 [quinpirol-(-)] | 92.5% | 98.7% | 94.9% | 101% | 102% | 96.8% | 93.1% | 97.6% | 93.6% | 107% | 98.2% | 95.9% | 98.5% | 93.1% | 95.9% | 102% | 93.7% | 99.8% | 99.1% | 106% | 93.6% | 102% | 103% | 99.3% | 97.2% | 0 | 0 | 0 | 0 | 0 | > 10 µM | > 10 µM | > 10 µM | > 10 µM | > 10 µM
3 | CC(C)(C)c1cc(NC(=O)Nc2ccc(-c3cn4c(n3)sc3cc(OCCN5CCOCC5)ccc34)cc2)no1 [quizartinib] | 101% | 97.4% | 103% | 93.6% | 103% | 99.1% | 100% | 98.8% | 104% | 99.8% | 104% | 97.3% | 96.6% | 93.4% | 96.1% | 103% | 105% | 103% | 90.9% | 86.5% | 85.7% | 97.5% | 90.9% | 89% | 93.3% | 0 | 0 | 0 | 0.6 | 0 | > 10 µM | > 10 µM | > 10 µM | > 10 µM | > 10 µM
4 | CCN1CCC[C@H]1CNC(=O)c1c(OC)ccc(Br)c1OC [remoxipride] | 101% | 103% | 98% | 105% | 95.7% | 96.2% | 100% | 94.3% | 91.4% | 91.7% | 96.3% | 113% | 99.7% | 94.3% | 79.9% | 99.9% | 104% | 88.7% | 99.1% | 92.7% | 111% | 92% | 101% | 96.5% | 94.1% | 0 | 0 | 1.3 | 0 | 0 | > 10 µM | > 10 µM | > 10 µM | > 10 µM | > 10 µM
5 | O=C(Nc1ccccc1)c1ccccc1O [salicylanilide] | 95.9% | 96.9% | 97.1% | 93.8% | 97.5% | 95.9% | 98.4% | 98.4% | 100% | 99.9% | 107% | 100% | 102% | 90.9% | 111% | 80% | 101% | 112% | 102% | 90.6% | 102% | 96.6% | 94.4% | 94.6% | 75.6% | 0 | 0 | 0 | 0 | 1.6 | > 10 µM | > 10 µM | > 10 µM | > 10 µM | > 10 µM
6 | CC(C)[C@H](O)C(=O)N[C@@H](C)C(=O)N[C@@H]1C(=O)N(C)CCc2ccccc21 [semagacestat] | 99.9% | 100% | 94% | 96.8% | 92.3% | 102% | 101% | 99.9% | 100% | 99.4% | 95.8% | 94.8% | 94.7% | 99.8% | 98.1% | 96.2% | 107% | 98.2% | 102% | 92.6% | 99.7% | 105% | 114% | 96.3% | 92.1% | 0 | 0 | 0 | 0 | 0 | > 10 µM | > 10 µM | > 10 µM | > 10 µM | > 10 µM
7 | Cc1c(S(=O)(=O)O)oc2c1C(=O)C(=O)c1c-2ccc2c1CCCC2(C)C [sodium-tanshinone-II-A-sulfonate] | 96.4% | 99.7% | 91.1% | 99.6% | 94.6% | 103% | 100% | 97.5% | 84.5% | 94.1% | 90.2% | 100% | 101% | 99.1% | 98.6% | 97.7% | 96.3% | 109% | 93.2% | 102% | 106% | 92.2% | 116% | 95.9% | 107% | 0 | 1.8 | 0 | 0 | 0 | > 10 µM | > 10 µM | > 10 µM | > 10 µM | > 10 µM
